Experimental data reported in patent US20240182867A1, “CHEMICAL REPROGRAMMING OF HUMAN SOMATIC CELLS INTO PLURIPOTENT CELLS” (Peking University, priority 2021, published 2024).

Experiments:
human somatic cells = test: hCiPSC colonies at the end of reprogramming after withdrawing individual chemicals from stage I or II; type: cell-based; settings: factor removed
Description: Cells were maintained at 37° C. with 21% 02 and 5% CO2. The induction medium was changed every 3-4 days. HEFs were seeded at a density of 1-1.5×10^4 cells per well of a 12-well plate in 15%. FBS-DMEM medium. Change the medium into stage I induction medium on the next day. For stage I induction, single layer epithelial-like cells would emerge at day 4-6 and approach 80%-100% confluence at day 8-12, then change the medium into stage II induction medium. For stage II induction, multi-layered colonies appeared after 8-12 days treatment and these cell colonies would continually grow larger. After totally 16-20 days' stage II treatment, change the medium into stage III condition. For stage III induction, 8-12 days treatment of stage III medium is required and then change the medium into stage IV condition. For stage IV induction, VPA (500 μM) was included in the first 4 days. Primary hCiPSC colonies would emerge after 6-8 days' treatment. At the end of stage IV, immunofluorescent staining of co-expression of OCT4 and NANOG was used to confirm the generation of primary hCiPSC colonies. Primary hCiPSC colony number was calculated as the number of the compact OCT4 positive colonies. Reprogramming efficiency was calculated as the number of primary hCiPSC colonies divided by the number of input HEFs.
In several experiments, to testing the reprogramming efficiency after removing each small molecules, the indicated small molecules were removed from the cocktails. The concentration of the small molecules used to regulate the same pathway or targets were indicated as follow: GSK3 inhibitors (CHIR99021: 3-15 μM; TD114-2: 0.5-2 μM; CHIR98014: 1-3 μM; GSK3βi XV: 0.05-0.2 μM); RA pathway agonists (TTNPB: 0.5-10 μM; Ch55: 1-5 μM; AM580: 0.1-1 μM); Rock inhibitors (TZV: 2-10 μM; Y27632: 2-15 μM; Fasudil: 2-10 μM; HA1100: 2-10 μM); TGFβ inhibitors (A8301: 0.1-5 μM; SB431542: 2-50 μM; LY364947: 0.5 μM; LY21: 0.5 μM; 616452: 10 μM).
In several experiments, to testing the reprogramming efficiency after regulate each small molecules, the indicated small molecules were removed from the cocktails. The concentration of the small molecules used to targeting the same pathway or targets were indicated as follow: GSK3 inhibitors (CHIR99021: 3-15 μM; TD114-2: 0.5-2 μM; CHIR98014: 1-3 μM; GSK3βi XV: 0.05-0.2 μM); TGFβ inhibitors (A8301: 0.2-5 μM; SB431542: 2-50 μM; 616452: 10 μM); RA pathway agonists (TTNPB: 0.2-10 μM; Ch55: 1-10 μM; AM580: 0.1-1 μM); Rock inhibitors (Y27632: 2-15 μM; Fasudil: 2-10 μM; HA1100: 2-10 μM; TZV: 2-10 μM); Smoothened agonists (SAG: 0.2-2 μM; Purmorphamine: 0.5-2 μM; Hg-Ag1.5: 0.5-1 μM; Human shh: 20-200 μM); histone demethylation inhibitors (Tranylcypromine: 2-50 μM; GSK2879: 0.02-2 μM; LSD-C76: 0.2-5 μM; S2101: 0.5-5 μM; LSD-2D: 0.2-5 μM; RN-1: 0.2-5 μM); DNMT inhibitors (5-azaC: 2-15 μM; Decitabine: 0.5-10 μM; RG108: 0.5-10 μM); JNK inhibitors (JNK-in-8: 0.2-2 μM; JNK-in-5: 0.5-1 μM; JNK-in-7: 0.2-2 μM; JNK-in-12: 0.2-0.5 μM); CBP/p300 bromodomain inhibitor (SGC-CBP30: 0.5-2 μM; I-CBP112: 0.5-5 μM; GNE272: 0.5-5μM; GNE409:0.5-5μM); Menin-MLL interaction inhibitor (VTP50469: 0.5-2μM; MI3454: 0.5-2μM; WDR5-IN-4: 0.5-2μM).

DNA CpG methylation = test: DNA methylation levels after withdrawing individual chemicals from stage II; type: cell-based, human
Excerpt: (§1) In several experiments, to testing the reprogramming efficiency after regulate each small molecules, the indicated small molecules were removed from the cocktails. […]
To perform alignments of bisulfite-treated reads correctly, the Bismark Bisulfite Mapper pipeline was followed. […] Sequence reads were similarly transformed and mapped to prepared genomes using Bowtie2 with parameters set by Bismark. […] In this way, the number of reads were obtained that supported methylation and the number of reads covering every CpG site, non-CpG sites were not considered in later analysis.
To identify the sites showing evidence of methylation, binomial test was performed to each site on these counts to test whether the methylation counts are beyond bisulfite non-conversion events. […] Methylation level for each CpG site passed the test was defined as the fraction of reads supporting methylation out of reads that cover the site (mCpG/CpG). […] The mean CpG methylation level of each sample was calculated as the fraction of all reads supporting CpG methylation out of reads that cover CpG site (all mCpG / all CpG).

[1] = tested on: cellular retinoic acid binding protein (CRABP); settings: cited from earlier work
SALL4 = test: Withdrawing individual chemicals from stage II: SALL4 activation; type: cell-based, human
Description: as §1
Total RNA was isolated using Direct-zol RNA MiniPrep Kit (Zymo Research, R2053). cDNA was synthesized from 0.5-1 μg of total RNA using TransScript First-Strand cDNA Synthesis SuperMix (TransGen Biotech, AT311-03). qPCR was performed by using KAPA SYBR FAST qPCR Kit Master Mix (KAPA Biosystems, KM4101) on a CFX ConnectTM Real-Time System (Bio-Rad). The data were analyzed using the delta-delta Ct method. […]

[2] = tested on: genes that activated at stage II; test: Withdrawing individual chemicals from stage II: plasticity signatures and chromatin accessibility; type: cell-based, human
Description: as §1
Approximately 5×10^4 cells of each sample were collected and washed once with cold PBS and re-suspended in 50 μL Lysis buffer (10 mM Tris-HCl PH7.4, 10 mM NaCl, 3 mM MgCl2, 0.5% NP-40). […] All ATAC libraries were sequenced on an Illumina Novaseq 6000 platform and 150 bp paired-end reads were generated. […]
Quality control was performed using FastQC to all samples. The raw ATAC-seq reads were trimmed using Trimmomatic with parameter ‘[…]:NexteraPE-PE.fa:2:30:7:1:true LEADING:3 TRAILING:3 SLIDINGWINDOW:4:15 MINLEN:36’ to remove detected adapters. Then the clean reads were mapped to human reference genome hg19 using Bowtie2 with parameter ‘—very-sensitive’. […] Duplicated reads were removed using MarkDuplicates function of Picard tools. Low quality mapped reads and reads mapped to mitochondrial were filtered using Samtools. […]
Overlapped peaks in different samples were merged and defined sample specific peak sets using R package ChIPpeakAnno. […] The ATAC signal strength around peak region or gene promoter region was quantified using Deeptools.

other human kinases = settings: cited from earlier work

Question: With Nc1ncn([C@@H]2O[C@H](CO)[C@@H](O)[C@H]2O)c(=O)n1 [5-Azacytidine] as the compound, how does the “generation of hCiPSCs” value (human somatic cells) read?
Answer: Its value is “greatly impaired”.

Question: What about the “development of a hypo-methylated state” value (DNA CpG methylation) of the same compound?
Answer: Its value is “required”.

Question: For CC(C)(C)c1cc(C(=O)/C=C/c2ccc(C(=O)O)cc2)cc(C(C)(C)C)c1 [Ch 55, 4-[(1E)-3-[3,5-bis(1,1-Dimethylethyl)phenyl]-3-oxo-1-propenyl]benzoic acid], which “affinity for CRABP” value [1] is on record?
Answer: Its value is “low affinity”.

Question: For Cc1cc(NC(=O)c2cccc(NC(=O)/C=C/CN(C)C)c2)ccc1Nc1nccc(-c2cccnc2)n1 [JNKIN8], which “generation of hCiPSCs” value (human somatic cells) is on record?
Answer: Its value is “greatly impaired”.

Question: What about the “activation of SALL4” value (SALL4) of the same compound?
Answer: The value was “required”.

Question: And the “opened chromatin status of the genes activated at stage II” value ([2]; chromatin accessibility analysis)?
Answer: The value was “essential”.

Question: And the “acquisition of plasticity signatures” value ([2]; stage II)?
Answer: The value was “required”.

Question: For CN(C)CCOc1ccc(-c2nc(-c3ccc4c(c3)CCC4=NO)c(-c3ccncc3)[nH]2)cc1 [SB590885, 5-[2-[4-[2-(Dimethylamino)ethoxy]phenyl]-5-(4-pyridinyl)-1H-imidazol-4-yl]-2,3-dihydro-1H-inden-1-one oxime], which “inhibition to other human kinases” value (other human kinases) is on record?
Answer: Its value is “no inhibition”.
